The values below come from patent publication US8883797B2, “Metalloenzyme inhibitor compounds” (Viamet Pharmaceuticals, Inc., priority 2011, dated 2014).

In brackets after ≈: the same amount, converted by molar mass.

The test system of this test is Septoria tritici (ATCC 26517). Nature of the test: Minimum Inhibitory Concentration (MIC) (Septoria tritici), CLSI-based microdilution. Type of test: cell-based. As to conditions: Zymoseptoria tritici, ATCC26517, 168 h; S. tritici ATCC 26517; 50% growth reduction; 7 days at 22 °C; read-out: Septoria Rating (MIC). As for the experimental part: C. Minimum Inhibitory Concentration (MIC) (Septoria tritici) Compounds of the present disclosure were assessed for their ability to inhibit the growth of a common strain of the fungal plant pathogen Septoria tritici (ATCC 26517) using a procedure based on a Clinical and Laboratory Standards Institute (CLSI) microdilution assay protocol for filamentous fungi. Stock solutions of the test compounds and standards were prepared in DMSO at 6400 μg/mL. Each stock solution was used to prepare a 2-fold dilution series ranging from 16 to 0.016 μg/mL (total of 11 compound concentrations) in RPMI-1640 (Roswell Park Memorial Institute) medium containing 3-(N-morpholino)propanesulfonic acid (MOPS) buffer and 2% DMSO. A 100 μL aliquot of the dilutions was added to columns 1 (16 μg/mL compound) through 11 (0.016 μg/mL compound) of a 96-well microtiter plate. This format was replicated in a second row of the microtiter plate. Thus, each microtiter plate could include 11 concentrations of four test or control compounds replicated twice. A 100 μL aliquot of RPMI-1640/MOPS/2% DMSO medium was added to column 12 (no compound control) of the microtiter plate. A fresh culture of S. tritici was used to prepare a solution of approximately 5×10^4 colony-forming units per milliliter (cfu/mL) in RPMI/MOPS medium without DMSO. A 100 μL aliquot of this solution was added to all 96 wells in the microtiter plate. […] The assay plates were incubated at 22° C. for seven days in the dark without shaking. […] In each case of Table 3 the rating scale is as follows: […]

Broadly, the MIC is the lowest concentration that inhibits growth of the organism. With `OC(Cn1cnnn1)(c1ccc(F)cc1F)C(F)(F)c1ccc2cc(OCC(F)(F)F)ccc2n1` (stereo not shown) [Compound 19, 2-(2,4-Difluorophenyl)-1,1-difluoro-3-(1H-tetrazol-1-yl)-1-(6-(2,2,2-trifluoroethoxy)quinolin-2-yl)propan-2-ol], the MIC lay within 0.5 to 1.5 µg/mL (≈ 0.997 to 2.99 µM).
With `OC(Cn1cnnn1)(c1ccc(F)cc1F)C(F)(F)c1nc2ccccc2s1` (stereo not shown) [Compound 6, 1-(Benzo[d]thiazol-2-yl)-2-(2,4-difluorophenyl)-1,1-difluoro-3-(1H-tetrazol-1-yl)propan-2-ol], the minimum inhibitory concentration (MIC) was at most 0.5 µg/mL.
The figure for `OC(Cn1cnnn1)(c1ccc(F)cc1F)C(F)(F)c1cnc(-c2ccc(Cl)cc2)cn1` (stereo not shown) [Compound 40, 1-(5-(4-Chlorophenyl)pyrazin-2-yl)-2-(2,4-difluorophenyl)-1,1-difluoro-3-(1H-tetrazol-1-yl)propan-2-ol] is 0.5 to 1.5 µg/mL (≈ 1.08 to 3.23 µM); for `OC(Cn1cnnn1)(c1ccc(F)cc1F)C(F)(F)c1ccc2c(OCC(F)(F)F)cccc2n1` (stereo not shown) [Compound 30, 2-(2,4-Difluorophenyl)-1,1-difluoro-3-(1H-tetrazol-1-yl)-1-(5-(2,2,2-trifluoroethoxy)quinolin-2-yl)propan-2-ol] it is 1.5 to 4 µg/mL (≈ 2.99 to 7.98 µM); for `N#Cc1ccc2nc(C(F)(F)C(O)(Cn3cnnn3)c3ccc(F)cc3F)ccc2c1` (stereo not shown) [Compound 24, 2-(2-(2,4-Difluorophenyl)-1,1-difluoro-2-hydroxy-3-(1H-tetrazol-1-yl)propyl)quinoline-6-carbonitrile] it is at most 0.5 µg/mL.
As for `OC(Cn1cnnn1)(c1ccc(F)cc1F)C(F)(F)c1cnc(-c2ccc(OCC(F)(F)F)cc2)cn1` (stereo not shown) [Compound 41, 2-(2,4-Difluorophenyl)-1,1-difluoro-3-(1H-tetrazol-1-yl)-1-(5-(4-(2,2,2-trifluoroethoxy)phenyl)pyrazin-2-yl)propan-2-ol], the MIC was at most 0.5 µg/mL.
For the compound `OC(Cn1cnnn1)(c1ccc(F)cc1F)C(F)(F)c1ccc2cc(F)ccc2n1` (stereo not shown) [Compound 17, 2-(2,4-Difluorophenyl)-1,1-difluoro-1-(6-fluoroquinolin-2-yl)-3-(1H-tetrazol-1-yl)propan-2-ol], the MIC was at most 0.5 µg/mL.
The figure for `OC(Cn1cnnn1)(c1ccc(F)cc1F)C(F)(F)c1cnc(-c2ccc(F)cc2)cn1` (stereo not shown) [Compound 46, 2-(2,4-Difluorophenyl)-1,1-difluoro-1-(5-(4-fluorophenyl)pyrazin-2-yl)-3-(1H-tetrazol-1-yl)propan-2-ol] is 0.5 to 1.5 µg/mL (≈ 1.12 to 3.35 µM); for `OC(Cn1ncnn1)(c1ccc(F)cc1F)C(F)(F)c1cnc(CCc2ccc(F)cc2)cn1` (stereo not shown) [Compound 53, 2-(2,4-Difluorophenyl)-1,1-difluoro-1-(5-(4-fluorophenethyl)pyrazin-2-yl)-3-(2H-tetrazol-2-yl)propan-2-ol] it is 1.5 to 4 µg/mL (≈ 3.15 to 8.4 µM).
The figure for `OC(Cn1ncnn1)(c1ccc(F)cc1F)C(F)(F)c1cnc(-c2ccc(F)cc2)cn1` (stereo not shown) [Compound 47, 2-(2,4-Difluorophenyl)-1,1-difluoro-1-(5-(4-fluorophenyl)pyrazin-2-yl)-3-(2H-tetrazol-2-yl)propan-2-ol] is above 4 µg/mL; for `OC(Cn1cnnn1)(c1ccc(F)cc1F)C(F)(F)c1ccc2c(Cl)cccc2n1` (stereo not shown) [Compound 31, 1-(5-Chloroquinolin-2-yl)-2-(2,4-difluorophenyl)-1,1-difluoro-3-(1H-tetrazol-1-yl)propan-2-ol] it is 1.5 to 4 µg/mL (≈ 3.43 to 9.14 µM); for `OC(Cn1cnnn1)(c1ccc(F)cc1F)C(F)(F)c1nc(Br)cs1` (stereo not shown) [Compound 2, 1-(4-Bromothiazol-2-yl)-2-(2,4-difluorophenyl)-1,1-difluoro-3-(1H-tetrazol-1-yl)propan-2-ol] it is 1.5 to 4 µg/mL (≈ 3.42 to 9.13 µM).
The figure for `OC(Cn1cnnn1)(c1ccc(F)cc1F)C(F)(F)c1ccc2c(Cl)c(Cl)ccc2n1` (stereo not shown) [Compound 29, 1-(5,6-Dichloroquinolin-2-yl)-2-(2,4-difluorophenyl)-1,1-difluoro-3-(1H-tetrazol-1-yl)propan-2-ol] is at most 0.5 µg/mL; for `OC(Cn1cnnn1)(c1ccc(F)cc1F)C(F)(F)c1cnc2cc(OC(F)(F)F)ccc2n1` (stereo not shown) [Compound 54, 2-(2,4-Difluorophenyl)-1,1-difluoro-3-(1H-tetrazol-1-yl)-1-(6-(trifluoromethoxy)quinoxalin-2-yl)propan-2-ol] it is 1.5 to 4 µg/mL (≈ 3.07 to 8.19 µM).
Turning to `OC(Cn1ncnn1)(c1ccc(F)cc1F)C(F)(F)c1cnc(C#Cc2ccc(F)cc2)cn1` (stereo not shown) [Compound 51, 2-(2,4-difluorophenyl)-1,1-difluoro-1-(5-((4-fluorophenyl)ethynyl)pyrazin-2-yl)-3-(2H-tetrazol-2-yl)propan-2-ol], the MIC was in the range of 1.5 to 4 µg/mL (≈ 3.18 to 8.47 µM).
The figure for `OC(Cn1cnnn1)(c1ccc(F)cc1F)C(F)(F)c1ccc(-c2ccc(OCC(F)(F)F)cc2)cc1` (stereo not shown) [Compound 60, 2-(2,4-Difluorophenyl)-1,1-difluoro-3-(1H-tetrazol-1-yl)-1-(4′-(2,2,2-trifluoroethoxy)biphenyl-4-yl)propan-2-ol] is 1.5 to 4 µg/mL (≈ 2.85 to 7.6 µM); for `OC(Cn1cnnn1)(c1ccc(F)cc1F)C(F)(F)c1ccc(-c2ccc(F)cc2)nn1` (stereo not shown) [Compound 58, 2-(2,4-Difluorophenyl)-1,1-difluoro-1-(6-(4-fluorophenyl)pyridazin-3-yl)-3-(1H-tetrazol-1-yl)propan-2-ol] it is 1.5 to 4 µg/mL (≈ 3.35 to 8.92 µM).
The figure for `C=Cc1ccc2nc(C(F)(F)C(O)(Cn3cnnn3)c3ccc(F)cc3F)cnc2c1` (stereo not shown) [Compound 59, 2-(2,4-Difluorophenyl)-1,1-difluoro-3-(1H-tetrazol-1-yl)-1-(6-vinylquinoxalin-2-yl)propan-2-ol] is 0.5 to 1.5 µg/mL (≈ 1.16 to 3.49 µM); for `OC(Cn1cnnn1)(c1ccc(F)cc1F)C(F)(F)c1cnc2cc(Cl)ccc2n1` (stereo not drawn) [10(−), 1-(6-Chloroquinoxalin-2-yl)-2-(2,4-difluorophenyl)-1,1-difluoro-3-(1H-tetrazol-1-yl)propan-2-ol] it is at most 0.5 µg/mL; for `OC(Cn1cnnn1)(c1ccc(C(F)(F)F)cc1Cl)C(F)(F)c1ccc2cc(Cl)ccc2n1` (stereo not shown) [Compound 22, 2-(2-Chloro-4-(trifluoromethyl)phenyl)-1-(6-chloroquinolin-2-yl)-1,1-difluoro-3-(1H-tetrazol-1-yl)propan-2-ol] it is 1.5 to 4 µg/mL (≈ 2.97 to 7.93 µM).
For the compound `OC(Cn1cnnn1)(c1ccc(F)cc1F)C(F)(F)c1cnc2cc(F)ccc2n1` (stereo not shown) [Compound 55, 2-(2,4-Difluorophenyl)-1,1-difluoro-1-(6-fluoroquinoxalin-2-yl)-3-(1H-tetrazol-1-yl)propan-2-ol], the MIC was in the range of 1.5 to 4 µg/mL (≈ 3.55 to 9.47 µM).
The figure for `OC(Cn1cnnn1)(c1ccc(F)cc1F)C(F)(F)c1cccs1` (stereo not shown) [Compound 14, 2-(2,4-Difluorophenyl)-1,1-difluoro-3-(1H-tetrazol-1-yl)-1-(thiophen-2-yl)propan-2-ol] is 0.5 to 1.5 µg/mL (≈ 1.4 to 4.19 µM); for `OC(Cn1cnnn1)(c1ccc(F)cc1F)C(F)(F)c1ccc(-c2ccc(OCC(F)(F)F)cc2)nc1` (stereo not shown) [Compound 36, 2-(2,4-Difluorophenyl)-1,1-difluoro-3-(1H-tetrazol-1-yl)-1-(6-(4-(2,2,2-trifluoroethoxy)phenyl)pyridin-3-yl)propan-2-ol] it is 1.5 to 4 µg/mL (≈ 2.84 to 7.58 µM); for `OC(Cn1cnnn1)(c1ccc(C(F)(F)F)cc1F)C(F)(F)c1ccc2cc(Cl)ccc2n1` (stereo not shown) [Compound 20, 1-(6-Chloroquinolin-2-yl)-1,1-difluoro-2-(2-fluoro-4-(trifluoromethyl)phenyl)-3-(1H-tetrazol-1-yl)propan-2-ol] it is 0.5 to 1.5 µg/mL (≈ 1.03 to 3.08 µM).
Turning to `OC(Cn1cnnn1)(c1ccc(F)cc1F)C(F)(F)c1ccc(-c2ccc(F)cc2)cc1` (stereo not shown) [Compound 61, 2-(2,4-Difluorophenyl)-1,1-difluoro-1-(4′-fluoro-[1,1′-biphenyl]-4-yl)-3-(1H-tetrazol-1-yl)propan-2-ol], the minimum inhibitory concentration (MIC) was 0.5 to 1.5 µg/mL (≈ 1.12 to 3.36 µM).
The figure for `OC(Cn1cnnc1)(c1ccc(F)cc1F)C(F)(F)c1ccc2cc(Cl)ccc2n1` (stereo not shown) [Compound 35, 1-(6-Chloroquinolin-2-yl)-2-(2,4-difluorophenyl)-1,1-difluoro-3-(4H-1,2,4-triazol-4-yl)propan-2-ol] is 1.5 to 4 µg/mL (≈ 3.43 to 9.16 µM); for `OC(Cn1cnnn1)(c1ccc(F)cc1F)C(F)(F)c1cnc(C#Cc2ccc(F)cc2)cn1` (stereo not shown) [Compound 50, 2-(2,4-Difluorophenyl)-1,1-difluoro-1-(5-((4-fluorophenyl)ethynyl)pyrazin-2-yl)-3-(1H-tetrazol-1-yl)propan-2-ol] it is at most 0.5 µg/mL; for `OC(Cn1cnnn1)(c1ccc(F)cc1F)C(F)(F)c1cnc(-c2ccc(F)c(F)c2)cn1` (stereo not shown) [Compound 44, 2-(2,4-Difluorophenyl)-1-(5-(3,4-difluorophenyl)pyrazin-2-yl)-1,1-difluoro-3-(1H-tetrazol-1-yl)propan-2-ol] it is 0.5 to 1.5 µg/mL (≈ 1.07 to 3.22 µM).
The figure for `OC(Cn1cnnn1)(c1ccc(F)cc1F)C(F)(F)c1nccs1` (stereo not shown) [Compound 12, 2-(2,4-Difluorophenyl)-1,1-difluoro-3-(1H-tetrazol-1-yl)-1-(thiazol-2-yl)propan-2-ol] is above 4 µg/mL.
The result for `OC(Cn1cnnn1)(c1ccc(Cl)cc1F)C(F)(F)c1ccc2cc(Cl)ccc2n1` (stereo not drawn) [8(−), 2-(4-Chloro-2-fluorophenyl)-1-(6-chloroquinolin-2-yl)-1,1-difluoro-3-(1H-tetrazol-1-yl)propan-2-ol] reads at most 0.5 µg/mL.
For the compound `OC(Cn1cnnn1)(c1ccc(F)c(F)c1)C(F)(F)c1ccc2cc(Cl)ccc2n1` (stereo not shown) [Compound 23, 1-(6-Chloroquinolin-2-yl)-2-(3,4-difluorophenyl)-1,1-difluoro-3-(1H-tetrazol-1-yl)propan-2-ol], the minimum inhibitory concentration (MIC) is at most 0.5 µg/mL.
